According to patent US12415834B2, “GhR-binding peptide and composition comprising same” (priority 2021, dated 2025):
Starred links: 1 amine or outer side, 2 acyl side, 3 side chain; linkers in the order of their positions; H or OH if unused. Positions of bridges follow the written chain, without caps; N, C: chain ends. Non-standard residues stand in square brackets, D forms with d. Residues, ends and D or L forms follow the SMILES beside them. Groups on a side chain read outwards from the residue. *: point of attachment. X14 = NC(=O)[C@H](CCCCN*)NC(=O)COCCOCCNC(=O)COCCOCCNC(=O)CC[C@H](NC(=O)CC[C@H](NC(=O)CCCCCCCCCCCCCCC(=O)O)C(=O)O)C(=O)O; X12 = NC(=O)[C@H](CCCCN*)NC(=O)CC[C@H](NC(=O)CC[C@H](NC(=O)CCCc1ccc(-c2ccccc2)cc1)C(=O)O)C(=O)O; X19 = Cc1ccc(CCCC(=O)N[C@@H](CCC(=O)N[C@@H](CCC(=O)N[C@@H](CCCCN*)C(N)=O)C(=O)O)C(=O)O)cc1; X10 = NC(=O)[C@H](CCCCN*)NC(=O)CC[C@H](NC(=O)CC[C@H](NC(=O)CCCc1ccc(I)cc1)C(=O)O)C(=O)O; X20 = CC(=O)N[C@@H](CCC(=O)N[C@@H](CCC(=O)N[C@@H](CCCCN*)C(N)=O)C(=O)O)C(=O)O; Trp(1-CH2CO) = O=C([C@H](Cc1cn(CC(=O)[*:3])c2ccccc12)N[*:1])[*:2]; Trp(5-OMe) = COc1ccc2[nH]cc(C[C@H](N)C(=O)O)c2c1; Butanoyl(4-(4-I-phenyl)) = O=C(CCCc1ccc(I)cc1)*; Trp(5-OH) = N[C@@H](Cc1c[nH]c2ccc(O)cc12)C(=O)O; Phe(4-COOH) = N[C@@H](Cc1ccc(C(=O)O)cc1)C(=O)O; Piperazinyl(4-CH2COOH) = O=C(O)CN1CCN(*)CC1; C16 diacid = O=C(O)CCCCCCCCCCCCCCC(=O)*; γGlu = O=C(O)[C@H](CCC(=O)[*:2])N[*:1]; X2 = O=C([C@@H]1CCCN1[*:2])[*:1]; hArg = N=C(N)NCCCC[C@H](N)C(=O)O; NMeK = CN[C@@H](CCCCN)C(=O)O; Aib = CC(C)(N)C(=O)O; CO = O=C([*:1])[*:2]

These compounds were tested against T1, Recombinant human GhR-Fc protein (Homo sapiens, UniProt P10912) (assay: SPR binding assay (Biacore T200, single-cycle kinetics) of peptides against immobilized human GhR-Fc). Conditions: not given.
T1 construct: purchased R&D Systems
T1 sequence (P10912 with tags, fused parts or gaps limits assumed): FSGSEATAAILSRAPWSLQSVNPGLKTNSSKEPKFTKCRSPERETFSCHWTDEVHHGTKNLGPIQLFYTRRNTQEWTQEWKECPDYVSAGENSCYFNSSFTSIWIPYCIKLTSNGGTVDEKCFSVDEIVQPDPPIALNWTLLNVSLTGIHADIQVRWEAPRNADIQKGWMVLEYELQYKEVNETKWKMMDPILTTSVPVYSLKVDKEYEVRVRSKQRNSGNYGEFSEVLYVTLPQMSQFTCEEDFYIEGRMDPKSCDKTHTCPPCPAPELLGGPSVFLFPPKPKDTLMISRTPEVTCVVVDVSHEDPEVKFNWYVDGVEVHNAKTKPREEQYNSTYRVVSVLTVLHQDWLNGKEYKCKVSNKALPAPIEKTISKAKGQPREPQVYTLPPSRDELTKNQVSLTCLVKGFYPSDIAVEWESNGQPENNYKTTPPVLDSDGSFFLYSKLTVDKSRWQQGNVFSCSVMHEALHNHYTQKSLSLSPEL
Summary of the method: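 Human GhR-Fc amine-coupled to a CM5 chip at pH 4.0; running buffer HBS-EP with 1% DMSO. Peptides measured by single-cycle kinetics on Biacore T200, with solvent correction and baseline subtraction. KD calculated from fitted ka and kd.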

Structure (SMILES)	Kd [nM]
CC(C)[C@@H]1NC(=O)[C@H](C(C)C)NC(=O)[C@@H]2CCCCNC(=O)Cn3cc(c4ccccc43)C[C@H](NC(=O)[C@H](CC(N)=O)NC(=O)[C@H](CO)NC1=O)C(=O)N[C@@H](Cc1ccc(C(=O)O)cc1)C(=O)N[C@@H](CCCCN)C(=O)N[C@@H](Cc1c[nH]c3ccc(O)cc13)C(=O)NC(C)(C)C(=O)N[C@@H](C(C)C)C(=O)N[C@H](C(=O)NCCCC[C@H](NC(=O)CC[C@H](NC(=O)CC[C@H](NC(=O)CCCc1ccc(-c3ccccc3)cc1)C(=O)O)C(=O)O)C(N)=O)CSCC(=O)N[C@@H](Cc1ccc(C(=O)O)cc1)C(=O)N2C [Compound 15] ({CH2CO}-[Phe(4-COOH)][NMeK]VVSN[Trp(1-CH2CO)][Phe(4-COOH)]K[Trp(5-OH)][Aib]VC-X12; lactam 2-7; thioether N-13)	1.61

Same assay, conditions: SPR, hGhR; Table 1 bicyclic peptides; KD calculated from ka and kd; read-out: KD

Structure (SMILES)	Kd [nM]
CC(C)[C@@H]1NC(=O)[C@H](C(C)C)NC(=O)[C@@H]2CCCCNC(=O)Cn3cc(c4ccccc43)C[C@H](NC(=O)[C@H](CC(N)=O)NC(=O)[C@H](CO)NC1=O)C(=O)N[C@@H](Cc1ccc(C(=O)O)cc1)C(=O)N[C@@H](CCCCNC(=N)N)C(=O)N[C@@H](Cc1c[nH]c3ccc(O)cc13)C(=O)NC(C)(C)C(=O)N[C@@H](C(C)C)C(=O)N[C@H](C(=O)NCCCC[C@H](NC(=O)CC[C@H](NC(=O)CC[C@H](NC(=O)CCCc1ccc(I)cc1)C(=O)O)C(=O)O)C(N)=O)CSCC(=O)N[C@@H](Cc1ccc(C(=O)O)cc1)C(=O)N2C [Compound 7] ({CH2CO}-[Phe(4-COOH)][NMeK]VVSN[Trp(1-CH2CO)][Phe(4-COOH)][hArg][Trp(5-OH)][Aib]VC-X10; lactam 2-7; thioether N-13)	0.96
Cc1ccc(CCCC(=O)N[C@@H](CCC(=O)N[C@@H](CCC(=O)N[C@@H](CCCCNC(=O)[C@@H]2CSCC(=O)N[C@@H](Cc3ccc(C(=O)O)cc3)C(=O)N(C)[C@H]3CCCCNC(=O)Cn4cc(c5ccccc54)C[C@H](NC(=O)[C@H](CC(N)=O)NC(=O)[C@H](CO)NC(=O)[C@H](C(C)C)NC(=O)[C@H](C(C)C)NC3=O)C(=O)N[C@@H](Cc3ccc(C(=O)O)cc3)C(=O)N[C@@H](CCCCN)C(=O)N[C@@H](Cc3c[nH]c4ccc(O)cc34)C(=O)NC(C)(C)C(=O)N[C@@H](C(C)C)C(=O)N2)C(N)=O)C(=O)O)C(=O)O)cc1 [Compound 12] ({CH2CO}-[Phe(4-COOH)][NMeK]VVSN[Trp(1-CH2CO)][Phe(4-COOH)]K[Trp(5-OH)][Aib]VC-X19; lactam 2-7; thioether N-13)	1.95
CC(C)[C@@H]1NC(=O)[C@H](C(C)C)NC(=O)[C@@H]2CCCCNC(=O)[C@@H]3CCCN3C(=O)Cn3cc(c4ccccc43)C[C@H](NC(=O)[C@H](CC(N)=O)NC(=O)[C@H](CO)NC1=O)C(=O)N[C@@H](Cc1ccc(O)cc1)C(=O)N[C@@H](CCCCN)C(=O)N[C@@H](Cc1c[nH]c3ccc(O)cc13)C(=O)NC(C)(C)C(=O)N[C@@H](C(C)C)C(=O)N[C@H](C(=O)NCC(N)=O)CSCC(=O)N[C@@H](Cc1ccc(O)cc1)C(=O)N2C [Compound 4] ({CH2CO}-Y[NMeK]VVSN[Trp(1-CH2CO)]YK[Trp(5-OH)][Aib]VCG-NH2; linker 2-7 via X2; thioether N-13)	1.07

The remaining lines, values ahead:

Kd [nM]	Structure (SMILES)
1.25	CC(C)[C@@H]1NC(=O)[C@H](C(C)C)NC(=O)[C@@H]2CCCCNC(=O)Cn3cc(c4ccccc43)C[C@H](NC(=O)[C@H](CC(N)=O)NC(=O)[C@H](CO)NC1=O)C(=O)N[C@@H](Cc1ccc(O)cc1)C(=O)N[C@@H](CCCCN)C(=O)N[C@@H](Cc1c[nH]c3ccc(O)cc13)C(=O)NC(C)(C)C(=O)N[C@@H](C(C)C)C(=O)N[C@H](C(=O)NCC(=O)N1CCC[C@H]1C(=O)N[C@H](CO)C(=O)N[C@H](CO)C(=O)N[C@H](CO)C(=O)N[C@@H](CCCCNC(=O)CC[C@H](NC(=O)CC[C@H](NC(=O)CCCCCCCCCCCCCCC(=O)O)C(=O)O)C(=O)O)C(N)=O)CSCC(=O)N[C@@H](Cc1ccc(C(=O)O)cc1)C(=O)N2C [Compound 20] ({CH2CO}-[Phe(4-COOH)][NMeK]VVSN[Trp(1-CH2CO)]YK[Trp(5-OH)][Aib]VCGP[dS][dS][dS]K([γGlu-γGlu-C16 diacid])-NH2; lactam 2-7; thioether N-13)
3.51	CC(=O)N[C@@H](CCC(=O)N[C@@H](CCC(=O)N[C@@H](CCCCNC(=O)[C@@H]1CSCC(=O)N[C@@H](Cc2ccc(C(=O)O)cc2)C(=O)N(C)[C@H]2CCCCNC(=O)Cn3cc(c4ccccc43)C[C@H](NC(=O)[C@H](CC(N)=O)NC(=O)[C@H](CO)NC(=O)[C@H](C(C)C)NC(=O)[C@H](C(C)C)NC2=O)C(=O)N[C@@H](Cc2ccc(C(=O)O)cc2)C(=O)N[C@@H](CCCCN)C(=O)N[C@@H](Cc2c[nH]c3ccc(O)cc23)C(=O)NC(C)(C)C(=O)N[C@@H](C(C)C)C(=O)N1)C(N)=O)C(=O)O)C(=O)O [Compound 58] ({CH2CO}-[Phe(4-COOH)][NMeK]VVSN[Trp(1-CH2CO)][Phe(4-COOH)]K[Trp(5-OH)][Aib]VC-X20; lactam 2-7; thioether N-13)
3.61	CC(C)[C@@H]1NC(=O)[C@H](C(C)C)NC(=O)[C@@H]2CCCCNC(=O)Cn3cc(c4ccccc43)C[C@H](NC(=O)[C@H](CC(N)=O)NC(=O)[C@H](CO)NC1=O)C(=O)N[C@@H](Cc1ccc(C(=O)O)cc1)C(=O)N[C@@H](CCCCN)C(=O)N[C@@H](Cc1c[nH]c3ccc(O)cc13)C(=O)NC(C)(C)C(=O)N[C@@H](C(C)C)C(=O)N[C@H](C(=O)NCCCC[C@H](NC(=O)COCCOCCNC(=O)COCCOCCNC(=O)CC[C@H](NC(=O)CC[C@H](NC(=O)CCCCCCCCCCCCCCC(=O)O)C(=O)O)C(=O)O)C(N)=O)CSCC(=O)N[C@@H](Cc1ccc(C(=O)O)cc1)C(=O)N2C [Compound 64] ({CH2CO}-[Phe(4-COOH)][NMeK]VVSN[Trp(1-CH2CO)][Phe(4-COOH)]K[Trp(5-OH)][Aib]VC-X14; lactam 2-7; thioether N-13)

Same assay, conditions: SPR, hGhR; Table 2 monocyclic peptides; KD calculated from ka and kd; read-out: KD

Structure (SMILES)	Kd [nM]
COc1ccc2[nH]cc(C[C@@H]3NC(=O)[C@H](CC(N)=O)NC(=O)[C@H](CO)NC(=O)[C@H](C(C)C)NC(=O)[C@H](C(C)C)NC(=O)[C@H](CCCCNC(=O)CC[C@H](NC(=O)CCCc4ccc(I)cc4)C(=O)O)N(C)C(=O)[C@H](Cc4ccc(O)cc4)NC(=O)CSC[C@@H](C(N)=O)NC(=O)[C@H](C(C)C)NC(=O)C(C)(C)NC(=O)[C@H](Cc4c[nH]c5ccc(O)cc45)NC(=O)[C@H](CCCCNC(=O)N4CCN(CC(=O)O)CC4)NC(=O)[C@H](Cc4ccc(O)cc4)NC3=O)c2c1 [Compound 44] ({CH2CO}-Y[NMeK]([γGlu-Butanoyl(4-(4-I-phenyl))])VVSN[Trp(5-OMe)]YK([CO-Piperazinyl(4-CH2COOH)])[Trp(5-OH)][Aib]VC-NH2; thioether N-13)	9.67
COc1ccc2[nH]cc(C[C@@H]3NC(=O)[C@H](CC(N)=O)NC(=O)[C@H](CO)NC(=O)[C@H](C(C)C)NC(=O)[C@H](C(C)C)NC(=O)[C@H](CCCCNC(=O)CC[C@H](NC(=O)CCCc4ccc(I)cc4)C(=O)O)N(C)C(=O)[C@H](Cc4ccc(C(=O)O)cc4)NC(=O)CSC[C@@H](C(N)=O)NC(=O)[C@H](C(C)C)NC(=O)C(C)(C)NC(=O)[C@H](Cc4c[nH]c5ccc(O)cc45)NC(=O)[C@H](CCCCN)NC(=O)[C@H](Cc4ccc(C(=O)O)cc4)NC3=O)c2c1 [Compound 39] ({CH2CO}-[Phe(4-COOH)][NMeK]([γGlu-Butanoyl(4-(4-I-phenyl))])VVSN[Trp(5-OMe)][Phe(4-COOH)]K[Trp(5-OH)][Aib]VC-NH2; thioether N-13)	2.19
